# Experimental data as given in PubChem BioAssay AID2060497 (Molecular Pharmacology Branch, DTP, NCI, 2025).
# Test system: 317291-083-R-J1-PDC complex spheroids, viability
# Assay: Anticancer human tumor 317291-083-R-J1-PDC patient-derived soft tissue sarcoma cell line growth inhibition [GQUAD]
# Settings: for IC50: curve of first compound; for viability, T/C: stronger effect = lower value
# Description: DNA G-quadruplex Stabilizer Agents in Combinations in Complex Spheroids
# A high-throughput screen of multi-cell type tumor spheroids was designed to identify active combinations of DNA G-quadruplex stabilizer agents and targeted small molecules. Complex spheroids include a stromal component modeled by human endothelial cells (HUVEC) and fibroblasts modeled by human mesenchymal stem cells (MSCs). The concentration ranges selected for each drug and investigational agent were based upon clinically achievable concentrations if the clinical Cmax of the agent was known.
# Compounds. The drugs and investigational agents: pidnarulex (CX-5461; NSC782164), APTO-253 (NSC789042), BRACO-19 (NSC847499), peposertib (NSC802822), ceralasertib (NSC780249), elimusertib (NSC800525), camonsertib (NSC841442), AZD-1390 (NSC803789), olaparib (NSC753686), talazoparib (NSC767125), ART-558 (NSC835418), sotorasib (NSC818433), MRTX-1133 (NSC836407), SN-38 (NSC673596), topotecan (NSC609699), etoposide (NSC141540), doxorubicin (NSC123127), gemcitabine (NSC613327), 5-fluorouracil (NSC19893), paclitaxel (NSC125973), vemurafenib (NSC761431), panobinostat (NSC761190), R-306465 (JNJ-16241199; NSC773264), adavosertib (NSC754352), TP-3654 (NSC805149), carboplatin (NSC241240), KSQ-4279 (NSC840948), and staurosporine (NSC755774) were obtained from the National Cancer Institute (NCI) Developmental Therapeutics Program Chemical Repository (34). The FDA-approved anticancer drug set is available from the NCI Developmental Therapeutics Program. […] The stock solutions were prepared in dimethyl sulfoxide (DMSO, Sigma-Aldrich, St. Louis, MO, cat. D2650) at 800-fold the tested concentration and stored at -70 degrees C prior to their use. All drugs and investigational agents were tested over a range starting from a high concentration at or near the clinical Cmax and decreasing in half-log increments. If the clinical Cmax for an agent had not been determined, the highest concentration tested was 10 microM.
# 2.3 Cell Culture. All cells were maintained in an incubator at 37 degrees C and 5% CO2 with 95% humidity. The PDC lines were cultured according to standard operating procedures established by the NCI PDMR. All PDCs were thawed and cultured in Matrigel-coated flasks prepared with a working solution of 1X Ham's F-12 nutrient mix, without supplementation (Invitrogen, cat. 11765054), 100 U/mL penicillin-streptomycin (Invitrogen, cat. 15140122), and 2.5% Matrigel (Corning Inc., cat. 354248) for the first three passages. The 857933-349-R-J2-PDC line was cultured in 6C/Colon 1B media, which includes advanced DMEM/F-12 (Thermo Fisher Scientific, cat. 12634028), 10 mM HEPES (Thermo Fisher Scientific, cat. 15630080), 1X GlutaMAX supplement (Thermo Fisher Scientific, cat. 35050061), 0.1 mg/mL primocin (InvivoGen, cat. ant-pm-2), 10% defined fetal bovine serum, heat inactivated (HyClone Laboratories Inc., cat. SH30070.03HI), 50% L-WRN conditioned media (ATCC, cat. CRL-3276), 1.25 mM N-Acetyl-L-cysteine (Sigma-Aldrich, cat. A9165), 10 mM nicotinamide (Sigma-Aldrich, cat. N0636), 1X B-27 supplement (Thermo Fisher Scientific, cat. 17504044), 1X N-2 supplement (Thermo Fisher Scientific, cat. 17502048), 10 microM Y-27632 dihydrochloride (Tocris Bioscience, cat. 1254), and 50 ng/mL human EGF recombinant protein (Thermo Fisher Scientific, cat. PHG0311). The 485176-168-R4-J1-PDC line was cultured in Panc media, which includes all 6C/Colon 1B media components plus 100 ng/mL human FGF-10 (Thermo Fisher Scientific, cat. 100-26), 500 nM SB-431542 (Selleckchem, cat. S1067), and gastrin (Tocris, cat. 3006).
# […]
# 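Further: spheroids exposed to compounds for one week before readout.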
# 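Wherever viability, T/C is given: percent viability relative to DMSO vehicle wells taken as 100%.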
structure (smiles),measurement,setting,value
CCCS(=O)(=O)Nc1ccc(F)c(C(=O)c2c[nH]c3ncc(-c4ccc(Cl)cc4)cc23)c1F + Cc1cnc(CNC(=O)c2c(=O)c3ccc(N4CCCN(C)CC4)nc3n3c2sc2ccccc23)cn1,IC50,second compound 0.0316 µM,4.02 µM
same,IC50,second compound 0.1 µM,3.92 µM
same,IC50,second compound 0.316 µM,0.179 µM
same,IC50,second compound 1 µM,< 0.0316 µM
same,IC50,second compound 3.16 µM,< 0.0316 µM
same,IC50,second compound 10 µM,< 0.0316 µM
same,"viability, T/C","second compound 0.0316 µM, first compound 0.0316 µM",89.2%
same,"viability, T/C","second compound 0.0316 µM, first compound 0.1 µM",100%
same,"viability, T/C","second compound 0.0316 µM, first compound 0.316 µM",99.8%
same,"viability, T/C","second compound 0.0316 µM, first compound 1 µM",91.3%
same,"viability, T/C","second compound 0.0316 µM, first compound 3.16 µM",60.6%
same,"viability, T/C","second compound 0.0316 µM, first compound 10 µM",9.94%
same,"viability, T/C","second compound 0.1 µM, first compound 0.0316 µM",64.3%
same,"viability, T/C","second compound 0.1 µM, first compound 0.1 µM",56.2%
same,"viability, T/C","second compound 0.1 µM, first compound 0.316 µM",67.1%
same,"viability, T/C","second compound 0.1 µM, first compound 1 µM",49.9%
same,"viability, T/C","second compound 0.1 µM, first compound 3.16 µM",59.4%
same,"viability, T/C","second compound 0.1 µM, first compound 10 µM",9.77%
same,"viability, T/C","second compound 0.316 µM, first compound 0.0316 µM",43%
same,"viability, T/C","second compound 0.316 µM, first compound 0.1 µM",68.4%
same,"viability, T/C","second compound 0.316 µM, first compound 0.316 µM",43.6%
same,"viability, T/C","second compound 0.316 µM, first compound 1 µM",38.1%
same,"viability, T/C","second compound 0.316 µM, first compound 3.16 µM",37.5%
same,"viability, T/C","second compound 0.316 µM, first compound 10 µM",16.5%
same,"viability, T/C","second compound 1 µM, first compound 0.0316 µM",55.6%
same,"viability, T/C","second compound 1 µM, first compound 0.1 µM",23.6%
same,"viability, T/C","second compound 1 µM, first compound 0.316 µM",43.1%
same,"viability, T/C","second compound 1 µM, first compound 1 µM",18.8%
same,"viability, T/C","second compound 1 µM, first compound 3.16 µM",19.7%
same,"viability, T/C","second compound 1 µM, first compound 10 µM",5.79%
same,"viability, T/C","second compound 3.16 µM, first compound 0.0316 µM",10.6%
same,"viability, T/C","second compound 3.16 µM, first compound 0.1 µM",11.7%
same,"viability, T/C","second compound 3.16 µM, first compound 0.316 µM",10.6%
same,"viability, T/C","second compound 3.16 µM, first compound 1 µM",11.8%
same,"viability, T/C","second compound 3.16 µM, first compound 3.16 µM",21.4%
same,"viability, T/C","second compound 3.16 µM, first compound 10 µM",0.18%
same,"viability, T/C","second compound 10 µM, first compound 0.0316 µM",10.2%
same,"viability, T/C","second compound 10 µM, first compound 0.1 µM",6.4%
same,"viability, T/C","second compound 10 µM, first compound 0.316 µM",24.3%
same,"viability, T/C","second compound 10 µM, first compound 1 µM",8.2%
same,"viability, T/C","second compound 10 µM, first compound 3.16 µM",16.7%
same,"viability, T/C","second compound 10 µM, first compound 10 µM",8.36%
